{"source": "paper PMC11237035", "about": "“Glutathione determines chronic myeloid leukemia vulnerability to an inhibitor of CMPK and TMPK” (Communications Biology, 2024)", "key": {"T315I-Bcr-Abl-32D cells [1]": {"tested_on": "T315I-Bcr-Abl-32D cells", "test": "Western blot of tyrosine phosphorylation and Bcr-Abl downstream signaling, T315I-Bcr-Abl-32D cells", "assay_type": "cell-based, mouse", "conditions": "T315I-Bcr-Abl-32D cells, JMF4073 at indicated concentrations, Western blot", "from_the_text": "(§1) Supplementary Figure 1. Bcr-Abl-activated downstream signaling in WT- and\n(§2) The comparison of Bcr-Abl downstream signaling (Akt, mTorC1, and Stat5) in WT- […]"}, "[2]": {"tested_on": "WT-Bcr-Abl-32D cells in C3H/HeNCrNarl mice", "test": "In vivo therapy of WT-Bcr-Abl-32D CML mice", "conditions": "WT-Bcr-Abl-32D mice", "quoted_text": "Data are represented as means ± S.D., n = 3 biological replicates. e C3H/HeNCrNarl mice were intravenously injected with 5 × 10^5 cells of WT-Bcr-Abl-32D cell. […] Asterisks denote *p < 0.05, **p < 0.01, ***p < 0.001, or ****p < 0.0001 from unpaired two-tailed Student’s t-test or Log-rank (Mantel–Cox) test.\nFemale C3H/HeNCrNarl mice were used at 6–8 weeks of age (National Laboratory Animal Center, Taiwan).\nMouse CML induction and in vivo therapy\nFemale C3H/HeNCrNarl mice were used at 6-8 weeks of age (National\nLaboratory Animal Center, Taiwan). WT-Bcr-Abl-32D-EGFP+ cells (5 × 105)\nsuspended in 200 μL of HBSS were injected into each mouse through the tail vein. After\nwere monitored for peripheral blood (PB) and counted by Taiwan Mouse Clinic-\nNational Phenotyping Center, National Research Program for Genomic Medicine\n(NSC). For T315I-Bcr-Abl CML mice, T315I-Bcr-Abl-32D-EGFP+ cells (1×106)\nsuspended in 200 μL of HBSS were tail-vein-injected. After 7 days of transplantation,\n(§3) For monitoring CML progress, mice blood was\n(§4) collected in anticoagulation tubes by submandibular blood collection, followed by\n(§5) lysing red blood cells with RBC lysis buffer (Invitrogen). After washing, the remaining\n(§6) cells were suspended in 500 μL of HBSS and subjected to flow cytometry analysis\n(FACScalibur, BD Bioscience) with CellQuest software. The number of EGFP+ cells"}, "T315I-Bcr-Abl-32D cells [3]": {"tested_on": "T315I-Bcr-Abl-32D cells", "test": "dTTP/dCTP pools by RCA-qPCR in T315I-Bcr-Abl-32D cells", "assay_type": "cell-based, mouse", "conditions": "T315I-Bcr-Abl-32D cells, combinatory treatment of UK-5099 with JMF4073", "method": "The methanol extracts were centrifuged\nFor chloroform extraction, same volume of\nattomol of the annealed template-primer.\nThe RCA products were determined by\nThe thiophenol compound 3 was\n(98.5%) after silica gel chromatography."}, "WT-Bcr-Abl-32D cells [4]": {"tested_on": "WT-Bcr-Abl-32D cells", "test": "Western blot of tyrosine phosphorylation and Bcr-Abl downstream signaling, WT-Bcr-Abl-32D cells", "assay_type": "cell-based, mouse", "conditions": "WT-Bcr-Abl-32D cells, JMF4073 at indicated concentrations, Western blot", "from_the_text": "as §1, §2"}, "[5]": {"tested_on": "T315I-Bcr-Abl-32D cells in C3H/HeNCrNarl mice", "conditions": "for survival of leukemia mice: T315I-Bcr-Abl-32D mice, vs vehicle", "quoted_text": "Asterisks denote *p < 0.05, **p < 0.01, ***p < 0.001, or ****p < 0.0001 from unpaired two-tailed Student’s t-test or Log-rank (Mantel–Cox) test.\nT315I-Bcr-Abl-transformed and untransformed 32D cells were treated with UK-5099 (25 μM) for 16 h. […] Data are represented as means ± S.D., n > 3 biological replicates.\nThe animal studies were approved by the biosafety committee at National Taiwan University and conformed to the national guidelines and regulations (IACUC # 20201063). Female C3H/HeNCrNarl mice were used at 6–8 weeks of age (National Laboratory Animal Center, Taiwan).\nMouse CML induction and in vivo therapy\nThe animal studies were approved by the biosafety committee at National Taiwan\nUniversity and conformed to the national guidelines and regulations (IACUC #\n20201063). Female C3H/HeNCrNarl mice were used at 6-8 weeks of age (National\nLaboratory Animal Center, Taiwan).\nsuspended in 200 μL of HBSS were injected into each mouse through the tail vein.\nsuspended in 200 μL of HBSS were tail-vein-injected.\nas §3, §4, §5, §6\n(FACScalibur, BD Bioscience) with CellQuest software."}, "WT-Bcr-Abl-32D cells [6]": {"tested_on": "WT-Bcr-Abl-32D cells", "test": "CCK-8 cell viability assay, WT-Bcr-Abl-32D cells", "assay_type": "cell-based, mouse", "conditions": "for viability (0 = 100): single replicates"}, "TCCS cells": {"tested_on": "TCCS cells", "test": "CCK-8 cell viability assay, TCCS cells", "conditions": "for cell viability (Figure 7d) / cell viability (Figure 7g): TCCS, per replicate; for cell viability (Figure 7d): relative to 0 = 100; for cell viability (Figure 7g): NT, NT 0 μM = 100", "quoted_text": "Cells were seeded at the density of 1 × 10^3 cells/well in 96-well microplate. After 3 days, cell viability was determined using the CCK-8 cell viability. The viability was measured by using Tecan Spark 10 microplate reader at 450 nm according to the manufacturer’s instructions."}, "hTMPK": {"molecular_target": "T1, hTMPK (Homo sapiens, UniProt P23919)", "T1 sequence (P23919 1-212)": "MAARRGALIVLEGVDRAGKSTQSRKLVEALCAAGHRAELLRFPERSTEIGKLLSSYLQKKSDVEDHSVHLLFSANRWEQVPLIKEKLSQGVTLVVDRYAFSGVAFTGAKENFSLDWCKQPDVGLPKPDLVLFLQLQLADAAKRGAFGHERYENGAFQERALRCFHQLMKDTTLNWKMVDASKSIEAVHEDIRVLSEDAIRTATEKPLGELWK", "test": "biochemical", "quoted_text": "Activity assay was measured using the spectrophotometric method by coupling ADP formation to NADH oxidation catalyzed by pyruvate kinase and lactate dehydrogenase as described previously[20]. Each reaction contained 0.4 μg TMPK or 0.3 μg CMPK was incubated at 25 °C followed by using Tecan Spark 10 microplate reader to detect the change in NADH measurement at 340 nm absorption according to the manufacturer’s instructions."}, "K562 cells": {"tested_on": "K562 cells", "test": "CCK-8 cell viability assay, K562 cells", "assay_type": "cell-based, human", "conditions": "for cell viability (Figure 7d): K562, relative to 0 = 100, per replicate", "method": "After 3 days, cells were analyzed by viability assays."}, "untransformed 32D cells": {"tested_on": "untransformed 32D cells", "test": "CCK-8 cell viability assay, untransformed 32D cells", "assay_type": "cell-based, mouse", "conditions": "32D cells, 72 h, no BSO, single replicates", "method": "After 72 h, viability assays were performed.\n3 independent experiments. Asterisks denote ***p<0.001 from non-paired two-tailed"}}, "note": "Several values for one entry are separate records, joined by “and”; a condition that tells them apart may be missing. Identical values can stand only once. Like-named read-outs stand apart in the source and are kept apart here."}
{"smiles": "CC(C)(C)OC(=O)N1CCN(C(=O)Cn2sc3ccc(F)cc3c2=O)CC1", "note": "[JMF4073, Tert-butyl 4-(2-(5-fluoro-3-oxobenzo[d]isothiazol-2(3H)-yl)acetyl) piperazine-1-carboxylate]", "values": [{"measurement": "levels of overall tyrosine phosphorylation", "setting": "T315I-Bcr-Abl-32D cells [1]", "result": "unaffected"}, {"measurement": "WBC (White blood cell/Leukocyte count)", "setting": "[2]; IP JMF4073, Day 26, submandibular blood, single mice", "result": "brought down"}, {"measurement": "survival of leukemia mice", "setting": "[2]; JMF4073 5 mg/kg i.p. daily for 14 days, vs vehicle", "result": "prolonged the survival"}, {"measurement": "dCTP pool", "setting": "T315I-Bcr-Abl-32D cells [3]", "result": "exhaustion"}, {"measurement": "dTTP pool", "setting": "T315I-Bcr-Abl-32D cells [3]", "result": "exhaustion"}, {"measurement": "levels of overall tyrosine phosphorylation", "setting": "WT-Bcr-Abl-32D cells [4]", "result": "unaffected"}, {"measurement": "Spleen weight", "setting": "[5]; Figure 6h, individual mice N1-N3", "result": "0.26 g and 0.29 g and 0.58 g"}, {"measurement": "spleen size", "setting": "[5]; JMF4073 5 mg/kg + UK-5099 10 mg/kg i.p.", "result": "marked decreases"}, {"measurement": "population of T315I-Bcr-Abl-32D/EGFP+ cells in blood", "setting": "[5]; JMF4073 5 mg/kg + UK-5099 10 mg/kg i.p., flow cytometry, day 30 after transplantation", "result": "marked decreases"}, {"measurement": "survival of leukemia mice", "setting": "[5]; JMF4073 5 mg/kg + UK-5099 10 mg/kg i.p. daily for 14 days", "result": "prolonged the survival"}, {"measurement": "survival of leukemia mice", "setting": "[5]; JMF4073 5 mg/kg i.p. daily for 14 days", "result": "not significantly prolonged"}, {"measurement": "GI50", "setting": "WT-Bcr-Abl-32D cells [6]; Mus musculus, WT-Bcr-Abl-32D cells, viability", "result": 670, "unit": "nM"}, {"measurement": "viability (0 = 100)", "setting": "WT-Bcr-Abl-32D cells [6]; WT-Bcr-Abl, JMF4073 1 mM (so in the source)", "result": "5 and 32.8138 and 24"}, {"measurement": "viability (0 = 100)", "setting": "WT-Bcr-Abl-32D cells [6]; WT-Bcr-Abl, JMF4073 2 mM (so in the source)", "result": "1 and 9.014 and 19"}, {"measurement": "viability (0 = 100)", "setting": "WT-Bcr-Abl-32D cells [6]; WT-Bcr-Abl, JMF4073 5 mM (so in the source)", "result": "-1.08 and 0.13 and 0"}, {"measurement": "cell viability (% of NT vehicle), Figure 5h", "setting": "WT-Bcr-Abl-32D cells [6]; WT-Bcr-Abl, NT (no NAC), JMF4073, single replicates", "result": "28.4633 and 15.0339 and 2.584"}, {"measurement": "JMF4073 sensitivity after NAC treatment", "setting": "WT-Bcr-Abl-32D cells [6]; WT-Bcr-Abl-32D cells, NAC 1 mM + JMF4073 0.5 μM, 72 h", "result": "insensitive to JMF4073"}, {"measurement": "sensitivity to combinatory treatment of JMF4073 and UK-5099", "setting": "TCCS cells; TCCS cells", "result": "insensitive"}, {"measurement": "JMF4073 sensitivity", "setting": "TCCS cells; TCCS cells, 3 days, compared among K562, TCCS, KOPM28", "result": "less"}, {"measurement": "JMF4073 sensitivity after erastin pretreatment", "setting": "TCCS cells; TCCS cells, erastin 0.5 μM, 16 h", "result": "markedly increased"}, {"measurement": "cell viability (Figure 7d)", "setting": "TCCS cells; JMF4073 0.625", "result": "120.422 and 103.29 and 164.136"}, {"measurement": "cell viability (Figure 7d)", "setting": "TCCS cells; JMF4073 1.25", "result": "102.037 and 133.359"}, {"measurement": "cell viability (Figure 7d)", "setting": "TCCS cells; JMF4073 2.5", "result": "39.3238 and 117.065"}, {"measurement": "cell viability (Figure 7d)", "setting": "TCCS cells; JMF4073 5", "result": "61.7646 and -1.852 and 14.6452"}, {"measurement": "cell viability (Figure 7g)", "setting": "TCCS cells; JMF 4073 0.625 μM", "result": "120.422 and 103.29 and 164.136"}, {"measurement": "cell viability (Figure 7g)", "setting": "TCCS cells; JMF 4073 1.25 μM", "result": "102.037 and 133.359"}, {"measurement": "cell viability (Figure 7g)", "setting": "TCCS cells; JMF 4073 2.5 μM", "result": "39.3238 and 117.065"}, {"measurement": "cell viability (Figure 7g)", "setting": "TCCS cells; JMF 4073 5 μM", "result": "61.7646 and -1.852 and 14.6452"}, {"measurement": "IC50", "setting": "hTMPK", "result": "160 nM and ~170 nM"}, {"measurement": "cell viability (Figure 7d)", "setting": "K562 cells; JMF4073 0.625 (mM as printed)", "result": "114.189 and 84.0418 and 97.6144"}, {"measurement": "cell viability (Figure 7d)", "setting": "K562 cells; JMF4073 1.25 (mM as printed)", "result": "86.4343 and 75.2342 and 85.0231"}, {"measurement": "cell viability (Figure 7d)", "setting": "K562 cells; JMF4073 2.5 (mM as printed)", "result": "42.6408 and 39.7616 and 38.8404"}, {"measurement": "cell viability (Figure 7d)", "setting": "K562 cells; JMF4073 5 (mM as printed)", "result": "4.788 and 0.7438 and 0.1275"}, {"measurement": "JMF4073 sensitivity", "setting": "K562 cells; K562 cells, 3 days, compared among K562, TCCS, KOPM28", "result": "higher"}, {"measurement": "viability (vehicle, 0 = 100)", "setting": "untransformed 32D cells; JMF4073 0.5 mM (so in the source)", "result": "108 and 88"}, {"measurement": "viability (vehicle, 0 = 100)", "setting": "untransformed 32D cells; JMF4073 1.25 mM (so in the source)", "result": "86 and 80"}, {"measurement": "viability (vehicle, 0 = 100)", "setting": "untransformed 32D cells; JMF4073 2.5 mM (so in the source)", "result": "70 and 71.46"}]}
